Assay results from patent US20140364454A1, “METAL-CHELATING COMPOUNDS HAVING AT LEAST ONE POLYAMINO CHAIN” (UNIVERSITE DE RENNES I, priority 2011, published 2014).
Where two headings read alike, the source gives them in different places.

Assays:
[1] = test system: wild cell line (CHO) of hamster ovarian cells; assay: Anti-proliferative effect on CHO cells, counting of cell nuclei (Hoechst 33342); assay type: cell-based; conditions: CHO
Description: The in vitro efficacy of different Quilamines was tested on a wild cell line (CHO) of hamster ovarian cells having PTS and a mutant cell line CHO-MG without PTS. The two cell types CHO and CHO-MG were treated, 24 hours after being seeded in 96-well microplates, by concentrations of different Quilamines ranging from 0.1 to 400 micromoles per liter. The cytostatic (anti-proliferative) effects and cytotoxic effects of Quilamine after 72 hours' treatment of the cells were assessed respectively by counting cell nuclei after DNA marking by the Hoechst 33342 fluorescent intercalant dye and by analysis of membrane damage detected by the dosing of the lactate dehydrogenase activity (LHD) in the supernatants.
The IC50 inhibitor concentration corresponding to the concentration in Quilamines enables the inhibition at 50% of the cell proliferation was deduced from the dose-effect curves of numeration of the nuclei of the living cells on the CHO and CHO-MG cell lines. […] The lower the value of IC50, the greater the efficiency of the anti-proliferative effect of the tested chelators.
A comparison was made of the cytostatic or anti-proliferative action and the cytotoxic action for 72 h of treatment by Quilamine HQ1-44 and 8-hydroxyquinoline and ICL670, on the CHO cell lines in the presence and without the presence of exogenous iron, in the form of Fe(III) citrate in a concentration of 20 micromoles per liter. The results obtained are shown in FIG. 4, FIG. 4A relating to the results on cell viability and FIG. 4B relating to the results on cell toxicity.

[2] = test system: mutant cell line CHO-MG without PTS; assay: Anti-proliferative effect on CHO-MG cells without PTS, counting of cell nuclei; assay type: cell-based, hamster; conditions: for IC50: 72 h treatment; for Ratio IC50 (CHO-MG/CHO): selectivity of recognition by the PTS
From the text: The IC50 inhibitor concentration corresponding to the concentration in Quilamines enables the inhibition at 50% of the cell proliferation was deduced from the dose-effect curves of numeration of the nuclei of the living cells on the CHO and CHO-MG cell lines. These dose-effect curves are sometimes bi-phase curves as in the case of Quilamine HQ1-44 which has an anti-proliferative constituent (without concomitant release of LDH in supernatant) in the range of concentrations of 0.4 to 3 micromoles per liter and a second cytotoxic constituent accompanied by membrane toxicity expressed by the release of LDH for concentrations of over […]. The lower the value of IC50, the greater the efficiency of the anti-proliferative effect of the tested chelators.
Furthermore, the ratio of the IC50 inhibitor concentrations found for the CHO-MG and the CHO cell lines (Ratio IC50 (CHO-MG/CHO)) was computed for several Quilamines according to the invention. This ratio makes it possible to estimate the selectivity of recognition of the different chelators by the PTS: the higher the ratio, the more clearly is the chelator recognized by the PTS. When this ratio is close to 1, the tested chelator is not recognized or is little recognized by the PTS.

HepG2 cells [3] = assay: Anti-proliferative effect on HepG2 cells (nuclei count or SDH activity); assay type: cell-based, human; conditions: for IC50: Homo sapiens, HepG2, absence of exogenous iron, read-out: IC50 associated with the cytostatic effect; for IC50 / % of HepG2 cells concerned by the anti-proliferative effect: 72 h; for % of HepG2 cells concerned by the anti-proliferative effect: absence of exogenous iron
From the text: The majority of the Quilamines, like ICL670, show biphase dose-effect curves in the absence of exogenous iron, with an anti-proliferative constituent for concentration values of 1 to 10 micromoles per liter and a cytotoxic constituent associated with a release of LDH for concentration values of over 10 micromoles per liter. The percentage of HepG2 cells concerned by the anti-proliferative effect and the values of IC50 associated with this cytostatic effect in the absence of exogenous iron were listed in the table 4 below.
(§1) The implication of PTS in the cytostatic and cytotoxic action of Quilamines was analyzed in proliferating HepG2 hepatocyte tumor cells after activation of PTS or competitive inhibition of PTS by spermidine, a polyamine naturally present in the organism and most efficaciously captured by the PTS. The conditions of treatment by Quilamines are identical to those described in paragraph III-1.
(§2) Inhibiting ornithine decarboxylase (ODC), the key enzyme in the biosynthesis of polyamines, causes a depletion of intra-cell polyamines and an activation of PTS which enables the deficiency to be met. This activation of PTS is done by means of the ODC inhibitor, alpha-difluoromethyl ornithine (DFMO).
(§3) The competitive inhibition of PTS by spermidine is prompted by the co-treatment of the cells by the Quilamines in the presence of spermidine, in a concentration of 50 micromoles per liter.

HepG2 cells [4] = assay: Cytotoxic effect on HepG2 cells, LDH release; assay type: cell-based, human; conditions: for influence of exogenous iron on the cytotoxic effect: HepG2, presence of exogenous iron
Description: as §1, §2, §3

Caco-2 cells [5] = assay: Cell viability of proliferating Caco-2 cells (number of nuclei); assay type: cell-based, human; conditions: for Constituent 1 (1-10 μM) % cell / Constituent 2 (10-100 μM) % cell: Caco-2 J4, no exogenous iron; for IC50: Homo sapiens, no exogenous iron
Description: The action of Quilamines on the cell viability was analyzed on enterocyte cells of the Caco-2 tumor cell line derived from human colon carcinoma and compared with the action of ICL670 in the presence or absence of exogenous iron, after activation (DFMO) or competitive inhibition by spermidine, of the PTS. The operating conditions used are identical to those used for CHO/CHO-MG and HepG2 cells.
The results for the measurement of the anti-proliferative effect of Quilamines, and of ICL670 on the proliferating cells (cytostatic constituent) when there is no exogenous iron have been listed in the table 4 below.

Caco-2 cells [6] = assay: Biochemical analysis of intra-cell iron, L-ferritin and transferrin soluble receptor in Caco-2 cells; assay type: cell-based, human; conditions: 72 hours; for intra-cell iron and L-ferritin concentrations: Caco-2, 10 micromoles per liter; for transferrin-soluble receptor: Caco-2 supernatant, 10 micromoles per liter
Description: After treatment for 72 hours of the Caco-2 cells in proliferative phase by Quilamine HQ1-44 and ICL670, biochemical analysis is carried out on the intra-cell iron (Fe2+ and Fe3+), of the two main proteins for regulating iron metabolism by the dosing of the intra-cell concentrations in L-ferritin, the iron storage protein, as well as the analysis of the transferrin soluble receptor the cell supernatant, which is a marker of the concentration in transferrin receptor, the iron importing protein of the membrane.

[7] = test system: ODC, OAZ1, SAMDC and PAO genes; assay: RT-qPCR of polyamine metabolism genes in Caco-2 cells; assay type: cell-based, human; conditions: proliferating Caco-2, 10 micromoles per liter, 72 hours
Description: After treatment for 72 hours of the Caco-2 cells, in proliferative phase by Quilamine HQ1-44 and ICL670 in a concentration of 10 micromoles per liter, an analysis is carried by RT-qPCR of the expression of the main genes for regulating the metabolism of polyamines, such as ornithine decarboxylase (ODC), antizyme (OAZ1), S-adenosyl methionine decarboxylase (SAMDC) and polyamine oxydase (PAO).

Caco-2 cells [8] = assay: LC/MSMS of intra-cell polyamines in Caco-2 cells; assay type: cell-based, human; conditions: proliferating Caco-2, 10 micromoles per liter, 72 hours
Description: After treatment for 72 hours of the Caco-2 cells, in proliferative phase by Quilamine HQ1-44 and ICL670 in a concentration of 10 micromoles per liter, a biochemical analysis is carried out by tandem mass spectrometry coupled with liquid chromatography (LC/MSMS) of the intra-cell polyamines such as putrescine, spermidine and spermine, after dansylation.

[9] = Fe(III) citrate 20 micromoles per liter
[10] = 72 h treatment, no exogenous iron, read-out: IC50 CHO
[11] = Caco-2 J4, cytostatic constituent, read-out: Constituent 1 (1-10 μM) IC50
[12] = Caco-2 J4, cytotoxic constituent, read-out: Constituent 2 (10-100 μM) IC50

SMILES | influence of exogenous iron on the cytostatic (anti-proliferative) effect [1, 9] | IC50 [1, 10] | IC50 ([2]; CHO-MG, 72 h) | Ratio IC50 (CHO-MG/CHO) [2] | IC50 (HepG2 cells [3]) | % of HepG2 cells concerned by the anti-proliferative effect (HepG2 cells [3]) | influence of exogenous iron on the cytotoxic effect (HepG2 cells [4]) | Constituent 1 (1-10 μM) % cell (Caco-2 cells [5]) | Constituent 2 (10-100 μM) % cell (Caco-2 cells [5]) | IC50 (Caco-2 cells [5]; [11]) | IC50 (Caco-2 cells [5]; [12]) | intra-cell iron and L-ferritin concentrations (Caco-2 cells [6]) | transferrin-soluble receptor (Caco-2 cells [6]) | expression of the genes of polyamine metabolism (ODC, OAZ1, SAMDC, PAO) [7] | change of intra-cell concentration of putrescine (Put) (Caco-2 cells [8]) | change of intra-cell concentration of spermidine (Spd) (Caco-2 cells [8]) | also measured
O=C(O)c1ccc(-n2nc(-c3ccccc3O)nc2-c2ccccc2O)cc1 [ICL670, reference compound] | inhibition | 9.2 µM | 8 µM | 1 | 3.85 µM | 72.5% | inhibition | 18% | 82% | 1.7 µM | 90 µM | intra-cell iron depletion | no significant effect | no effect | −34% | −15% | concentration of the cytotoxic constituent associated with release of LDH (HepG2 cells [4]; HepG2, absence of exogenous iron): over 10 micromoles per liter; influence of exogenous iron on the cytostatic effect (Caco-2 cells [5]; Caco-2, after addition of exogenous iron): inhibition
NCCCCNCCCCNCc1ccc2cccc(O)c2n1 [HQ1-44, 2-[4-(4-aminobutyl)aminobutyl]aminomethylquinolin-8-ol] | improvement | 1.4 µM | 344 µM | 249 | 2.75 µM | 30% | partially inhibited | 70% | 30% | 1.3 µM | 20 µM | intra-cell iron depletion | no significant effect | no effect | −73% | −55% | IC50 ([1]; Fe(III) citrate 20 micromoles per liter, 72 h, read-out: IC50 CHO in the presence of exogenous iron): 0.6 µM; IC50 [2]: 344 µM; influence of competitive inhibition of PTS by spermidine on the cytostatic effects (HepG2 cells [3]; HepG2, spermidine 50 micromoles per liter, Quilamine below 10 micromoles per liter): inhibition; influence of PTS activation by DFMO pre-treatment on cytotoxicity (HepG2 cells [4]; HepG2, concentrations greater than 50 micromoles per liter (50-100)): amplification; influence of competitive inhibition of PTS by spermidine on the cytotoxic effects (HepG2 cells [4]; HepG2, spermidine 50 micromoles per liter, Quilamine 50 to 100 micromoles per liter): inhibition; effect on intra-cell spermine (Spm) (Caco-2 cells [8]): absence of an effect
